From ChEMBL document CHEMBL1201862, “PubChem BioAssay data set” (2004)
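Compound exposure: 48 hours, 5 concentrations, 96-well plates. GI50 marks 50% less growth.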 The source made the active and inactive calls. No stated cut-off is given here; in the data, active = GI50 up to about 1.1 µM and inactive = higher.

Key:
Assay in all cases: growth of human tumour cells (NCI), 48 h
A498 = tested on: A498
ACHN = tested on: ACHN
CCRF-CEM = tested on: CCRF-CEM
DU-145 = tested on: DU-145
EKVX = tested on: EKVX
HL-60 = tested on: HL-60
HOP-62 = tested on: HOP-62
HT-29 = tested on: HT-29
LOX IMVI = tested on: LOX IMVI
OVCAR-5 = tested on: OVCAR-5
OVCAR-8 = tested on: OVCAR-8
SF-268 = tested on: SF-268
SF-295 = tested on: SF-295
SF-539 = tested on: SF-539
SK-OV-3 = tested on: SK-OV-3
SNB-75 = tested on: SNB-75
SR = tested on: SR
T47D = tested on: T47D
U-251 = tested on: U-251
RXF 393 = tested on: RXF 393

SMILES	GI50 (A498)	GI50 (ACHN)	GI50 (CCRF-CEM)	GI50 (DU-145)	GI50 (EKVX)	GI50 (HL-60)	GI50 (HOP-62)	GI50 (HT-29)	GI50 (LOX IMVI)	GI50 (OVCAR-5)	GI50 (OVCAR-8)	GI50 (SF-268)	GI50 (SF-295)	GI50 (SF-539)	GI50 (SK-OV-3)	GI50 (SNB-75)	GI50 (SR)	GI50 (T47D)	GI50 (U-251)	GI50 (RXF 393)
CC1(C)CC(=O)c2c(nc3ccc4ccccc4c3c2-c2ccc(NC(=O)CCCC(=O)Nc3ccc(-c4c5c(nc6ccc7ccccc7c46)CC(C)(C)CC5=O)cc3)cc2)C1	> 100 µM (inactive)	> 100 µM (inactive)	> 100 µM (inactive)	> 100 µM (inactive)	> 100 µM (inactive)	5.94 µM (inactive)	> 100 µM (inactive)	> 100 µM (inactive)	> 100 µM (inactive)	> 100 µM (inactive)	> 100 µM (inactive)	> 100 µM (inactive)	> 100 µM (inactive)	> 100 µM (inactive)	> 100 µM (inactive)	41.6 µM (inactive)	> 100 µM (inactive)	> 100 µM (inactive)	> 100 µM (inactive)	–
Cc1ccc(Nc2nc(NNC(=O)Cc3ccccc3)nc(NNC(=O)c3ccncc3)n2)cc1	> 10 µM (inactive)	–	> 10 µM (inactive)	> 10 µM (inactive)	> 10 µM (inactive)	> 10 µM (inactive)	> 10 µM (inactive)	> 10 µM (inactive)	> 10 µM (inactive)	–	> 10 µM (inactive)	> 10 µM (inactive)	–	> 10 µM (inactive)	> 10 µM (inactive)	> 10 µM (inactive)	> 10 µM (inactive)	> 10 µM (inactive)	> 10 µM (inactive)	–
O=C1NC2(CCNCC2)Oc2ccccc21	–	> 100 µM (inactive)	> 100 µM (inactive)	> 100 µM (inactive)	> 100 µM (inactive)	> 100 µM (inactive)	> 100 µM (inactive)	> 100 µM (inactive)	> 100 µM (inactive)	> 100 µM (inactive)	> 100 µM (inactive)	> 100 µM (inactive)	> 100 µM (inactive)	> 100 µM (inactive)	> 100 µM (inactive)	> 100 µM (inactive)	> 100 µM (inactive)	> 100 µM (inactive)	> 100 µM (inactive)	64.1 µM (inactive)
COP(=O)(Cc1ccccc1)Cc1ccccc1	–	> 100 µM (inactive)	> 100 µM (inactive)	> 100 µM (inactive)	> 100 µM (inactive)	> 100 µM (inactive)	> 100 µM (inactive)	> 100 µM (inactive)	> 100 µM (inactive)	> 100 µM (inactive)	> 100 µM (inactive)	> 100 µM (inactive)	> 100 µM (inactive)	> 100 µM (inactive)	> 100 µM (inactive)	> 100 µM (inactive)	> 100 µM (inactive)	> 100 µM (inactive)	> 100 µM (inactive)	86.1 µM (inactive)
O=c1oc2ccc(Cl)cc2cc1-c1cn2cc(Cl)ccc2n1	–	> 100 µM (inactive)	> 28.8 µM (inactive)	> 100 µM (inactive)	> 37.3 µM (inactive)	3.4 µM (inactive)	> 69.3 µM (inactive)	> 24.3 µM (inactive)	> 28.2 µM (inactive)	> 100 µM (inactive)	> 57 µM (inactive)	> 80.9 µM (inactive)	10.1 µM (inactive)	> 100 µM (inactive)	> 100 µM (inactive)	> 100 µM (inactive)	0.473 µM (active)	> 100 µM (inactive)	> 49.3 µM (inactive)	> 100 µM (inactive)
CCOC(=O)COc1cc(-c2ccccc2F)nc2cc3c(cc12)OCO3	–	> 100 µM (inactive)	23.2 µM (inactive)	> 100 µM (inactive)	85.5 µM (inactive)	–	> 100 µM (inactive)	> 100 µM (inactive)	53.7 µM (inactive)	> 100 µM (inactive)	> 100 µM (inactive)	> 100 µM (inactive)	> 100 µM (inactive)	> 100 µM (inactive)	> 100 µM (inactive)	59.4 µM (inactive)	> 10 µM (inactive)	79.8 µM (inactive)	93.5 µM (inactive)	> 100 µM (inactive)
COc1cc(Nc2cnc3cc(F)c(F)cc3n2)cc(OC)c1OC	> 100 µM (inactive)	> 100 µM (inactive)	> 100 µM (inactive)	> 100 µM (inactive)	> 100 µM (inactive)	24.9 µM (inactive)	91.8 µM (inactive)	> 100 µM (inactive)	40 µM (inactive)	> 100 µM (inactive)	> 100 µM (inactive)	> 100 µM (inactive)	> 100 µM (inactive)	> 100 µM (inactive)	> 100 µM (inactive)	> 100 µM (inactive)	–	> 100 µM (inactive)	> 100 µM (inactive)	36.8 µM (inactive)
CC(=O)N(C(C)=O)n1c(Cc2ccc(C)cc2)nn(C(C)=O)c1=O	> 100 µM (inactive)	> 100 µM (inactive)	> 100 µM (inactive)	> 100 µM (inactive)	> 100 µM (inactive)	> 100 µM (inactive)	> 100 µM (inactive)	> 100 µM (inactive)	> 100 µM (inactive)	> 100 µM (inactive)	> 100 µM (inactive)	> 100 µM (inactive)	> 100 µM (inactive)	> 100 µM (inactive)	> 100 µM (inactive)	> 100 µM (inactive)	> 100 µM (inactive)	> 100 µM (inactive)	> 100 µM (inactive)	–
CC1=CC(=O)c2ccc(C)cc2C1=O [CHIMAPHILIN]	17.6 µM (inactive)	7.45 µM (inactive)	2.86 µM (inactive)	16.8 µM (inactive)	7.1 µM (inactive)	1.98 µM (inactive)	17.4 µM (inactive)	38.6 µM (inactive)	5.09 µM (inactive)	19.9 µM (inactive)	10.6 µM (inactive)	14.3 µM (inactive)	17.2 µM (inactive)	15.6 µM (inactive)	16.9 µM (inactive)	> 10 µM (inactive)	3.4 µM (inactive)	2.91 µM (inactive)	11.5 µM (inactive)	–
CC(C)(Br)C(=O)/C=C/c1ccccc1	18.7 µM (inactive)	2.55 µM (inactive)	0.22 µM (active)	5.71 µM (inactive)	7.62 µM (inactive)	3.91 µM (inactive)	4.58 µM (inactive)	4.23 µM (inactive)	1.32 µM (inactive)	6.56 µM (inactive)	2.13 µM (inactive)	10.6 µM (inactive)	16.8 µM (inactive)	8.13 µM (inactive)	25.6 µM (inactive)	16.1 µM (inactive)	1.98 µM (inactive)	2.47 µM (inactive)	6.95 µM (inactive)	–
C/C(=C1/N=C(c2ccccc2)OC1=O)c1ccccc1	> 100 µM (inactive)	74.6 µM (inactive)	33.4 µM (inactive)	> 100 µM (inactive)	> 100 µM (inactive)	25.6 µM (inactive)	> 100 µM (inactive)	> 100 µM (inactive)	33.5 µM (inactive)	> 100 µM (inactive)	> 100 µM (inactive)	> 100 µM (inactive)	76.2 µM (inactive)	48.6 µM (inactive)	> 100 µM (inactive)	> 100 µM (inactive)	39.5 µM (inactive)	> 100 µM (inactive)	> 100 µM (inactive)	–
Nc1nc(N)c2ncn(Cc3ccccc3CO)c2n1	> 100 µM (inactive)	> 100 µM (inactive)	29.7 µM (inactive)	> 100 µM (inactive)	> 100 µM (inactive)	> 100 µM (inactive)	> 100 µM (inactive)	> 100 µM (inactive)	> 100 µM (inactive)	> 100 µM (inactive)	> 100 µM (inactive)	> 100 µM (inactive)	> 100 µM (inactive)	> 100 µM (inactive)	> 100 µM (inactive)	> 100 µM (inactive)	> 100 µM (inactive)	> 100 µM (inactive)	> 100 µM (inactive)	–
CC1CN=C(N(C)C(=O)Nc2ccc(Cl)cc2)S1 (centres undefined)	40.1 µM (inactive)	1.3 µM (inactive)	> 10 µM (inactive)	12.9 µM (inactive)	21.4 µM (inactive)	15.7 µM (inactive)	48.2 µM (inactive)	31.3 µM (inactive)	20.2 µM (inactive)	4.47 µM (inactive)	45.7 µM (inactive)	41.5 µM (inactive)	5.14 µM (inactive)	10.6 µM (inactive)	46 µM (inactive)	> 100 µM (inactive)	12.3 µM (inactive)	4.19 µM (inactive)	13.3 µM (inactive)	–
NCCCN(CCCCN(CCCN)C(=O)OCc1ccccc1)C(=O)OCc1ccccc1	> 100 µM (inactive)	> 100 µM (inactive)	47 µM (inactive)	> 100 µM (inactive)	> 100 µM (inactive)	29.8 µM (inactive)	> 100 µM (inactive)	> 100 µM (inactive)	39.8 µM (inactive)	> 100 µM (inactive)	> 100 µM (inactive)	35.3 µM (inactive)	> 100 µM (inactive)	> 100 µM (inactive)	> 100 µM (inactive)	56.8 µM (inactive)	–	> 100 µM (inactive)	> 100 µM (inactive)	98.6 µM (inactive)
Oc1ccc(/C=N/N=c2\[nH][nH]/c(=N\N=C\c3ccc(O)cc3O)c3ccccc23)c(O)c1	–	0.21 µM (active)	0.345 µM (active)	0.338 µM (active)	0.211 µM (active)	0.271 µM (active)	0.304 µM (active)	0.331 µM (active)	0.313 µM (active)	0.422 µM (active)	0.25 µM (active)	0.126 µM (active)	0.295 µM (active)	0.294 µM (active)	0.428 µM (active)	–	0.136 µM (active)	0.271 µM (active)	0.2 µM (active)	–
